Laboratory results reported in patent publication US20230277569A1, “Compositions and Methods for Treating, Ameliorating and/or Preventing Cancer and Kits for the Same” (priority 2022, published 2023).
Where “and” joins values, the source holds several entries; their conditions need not be identical. Equal values may be shown once. Read-outs that look alike come from different tables or passages of the source.

Legend:
[1] = biological target: Human Kv1.5 (Homo sapiens, UniProt P22460); assay: Ion channel screening, Kv1.5; assay type: cell-based; details: n=15, read-out: inhibition of Kv1.5 currents
Chain of Human Kv1.5 (P22460 whole entry): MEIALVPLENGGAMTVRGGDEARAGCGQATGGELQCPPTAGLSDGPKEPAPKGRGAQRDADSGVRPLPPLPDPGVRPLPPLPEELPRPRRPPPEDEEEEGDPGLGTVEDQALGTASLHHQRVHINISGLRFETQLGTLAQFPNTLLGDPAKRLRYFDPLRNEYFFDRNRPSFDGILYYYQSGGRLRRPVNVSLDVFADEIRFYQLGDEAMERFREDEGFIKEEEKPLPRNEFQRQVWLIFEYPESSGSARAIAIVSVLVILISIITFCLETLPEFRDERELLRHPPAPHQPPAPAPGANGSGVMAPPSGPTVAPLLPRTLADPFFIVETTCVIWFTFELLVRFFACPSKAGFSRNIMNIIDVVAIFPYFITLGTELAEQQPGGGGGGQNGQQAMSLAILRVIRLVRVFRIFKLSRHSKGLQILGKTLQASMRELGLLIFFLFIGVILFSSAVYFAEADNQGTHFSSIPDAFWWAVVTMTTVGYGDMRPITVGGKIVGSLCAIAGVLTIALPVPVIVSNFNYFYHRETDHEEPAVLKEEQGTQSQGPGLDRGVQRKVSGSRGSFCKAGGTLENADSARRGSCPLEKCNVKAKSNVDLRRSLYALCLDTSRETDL
Excerpt: The parameters measured were the maximum inward current evoked on stepping to −20 mV from the 1st and 26th pulse. Human Kv4.3/KChIP2 currents were evoked from a holding potential of −80 mV by a series of four 500 msec pulses to 0 mV using a 1000 msec interval between pulses. The parameter measured was the amplitude of the outward current 50 msec after the onset of the 4th voltage step to 0 mV. Human Cav1.2 currents were evoked by 2 pulses to −10 mV from a holding potential of −100 mV. The parameters measured were the maximum inward currents evoked on stepping to −10 mV from the holding potential of −100 mV for the 1st and 2nd pulse. Human Kv1.5 currents were evoked by a single pulse from a holding potential of −80 mV to a potential of 0 mV for 4 sec before returning to −80 mV. The parameters measured were the maximum amplitude of outward currents evoked at the beginning of the voltage pulse and at the end of the voltage step from −80 mV to 0 mV. Human KCNQ1/minK currents were evoked by a single pulse delivered from a holding potential of −80 mV to +60 mV for 4 sec before returning to −80 mV. The parameter measured was the maximum outward current evoked on stepping to +60 mV from the holding potential of −80 mV. hERG currents were evoked by a three-pulse protocol where voltage was first stepped to +40 mV for two sec from a holding potential of −80 mV to inactivate hERG channels. […]

[2] = in vitro; details: human
Experimental: (§1) Caco2 cells (2×10^4/well) were seeded onto apical chambers of a 24-multiwell insert plate and incubated at 37° C. in 5% CO2. After 21 d, the transepithelial electrical resistance (TEER) in ohms was read for each insert well as a quality control for monolayer integrity (>900 ohms or 300 ohms cm^2). The cell monolayers were incubated with 400 μL transport buffer on the apical (A) and 1.2 mL on the basolateral (B) sides for 30 min. After preincubation, dosing solution was added to the apical (400 μL, A-to-B, donor) or basolateral sides (1.2 mL, B-to-A, donor) or receiving buffer to the apical (400 μL, B-to-A, receiver) or basolateral sides (1.2 mL, A-to-B, receiver) for 90 min at 37° C. in 5% CO2. […] Papp·A>B (nm/s) was calculated with Equation 1.
(§2) Papp Efflux Ratio (ER) was calculated with Equation 2.
(§3) Propranolol (high permeability marker, non-P-gp substate) and digoxin (P-gp substrate) were used as controls.

[3] = tested on: Caco2 intestinal cell monolayer; assay: in vitro; details: human, Caco-2, 90 min
Experimental: as §1, §2, §3

[4] = tested on: NCI 60 cell lines; details: NCI 60 cell line screen; read-out: IC50 anticancer activity; cited from earlier work
[5] = Stability in human plasma; assay type: in vitro ADME
[6] = Gamitrinib pharmacokinetics (PK) in rat plasma, single IV dose; assay type: in vivo, Sprague-Dawley rats; details: for 17-AG plasma concentration after IV Gamitrinib: Gamitrinib 5 mg/kg IV
Experimental: Sprague-Dawley rats (n=3) were administered a single intravenous (IV) dose of 1 mL Gamitrinib (5 mg/kg) formulated as described above without added microfluidization. Blood samples were collected via lateral tail vein using K2EDTA as an anticoagulant at 0.083, 0.25, 0.5, 1, 2, 4 and 24 h post-dose, chilled on ice and centrifuged at 5000 rpm for 10 min. Aliquots (0.2 mL) of each plasma sample were stored frozen at −20° C. For analysis, 50 μL aliquots of study samples were mixed with 50 μL of ACN/H2O (50:50), extracted by protein precipitation using ACN containing the internal standard Gamitrinib-d15 (100 ng/mL), and aliquots of supernatant were mixed with deionized water for Gamitrinib determination. Batch samples under analysis included a calibration curve, a matrix blank (blank rat plasma), a reagent blank, a control zero (blank rat plasma spiked with internal standard), and duplicate QC samples at 3 concentration levels (low, medium, and high) in addition to the study samples. Within each batch, the study samples were bracketed by calibration standards or QC samples. The lowest calibration standard served to evaluate system suitability at the beginning of each batch. […] Overall, the concentration of Gamitrinib was measured in 21 rat plasma samples in 1 analytical batch using LC-MS/MS data acquisition on a Shimadzu Nexera LC system coupled with an AB Sciex Triple Quad 5500 mass spectrometer. Chromatograms were integrated using Analyst 1.6.2 software. A weighted (1/x^2, x=concentration) linear regression was used to generate the calibration curve for Gamitrinib. […] The mean, standard deviation, precision, accuracy, and assay variability were calculated using Microsoft Excel.

[7] = 5 mg/kg IV, individual animals Rat 1-3

In the case of `CO[C@H]1/C=C\C=C(/C)C(=O)NC2=CC(=O)C(NCCCCCC[P+](c3ccccc3)(c3ccccc3)c3ccccc3)=C(C[C@@H](C)C[C@H](OC)[C@H](O)[C@@H](C)/C=C(\C)[C@@H]1OC(N)=O)C2=O` [Gamitrinib, 17-Demethoxy-17-((6-(triphenylphosphonio)hexyl)amino)geldanamycin], the inhibition at 10 µM [1] is reported as 6.6 ± 1.3%, the Papp B→A at 90 min ([2]; Caco-2) is reported as 1.09 ×10⁻⁶ cm/s and the efflux ratio at 90 min ([2]; Caco-2, Papp Efflux Ratio (ER)) is reported as 5.77. The Papp A→B at 90 min ([2]; Caco-2, Papp) was 0.19 ×10⁻⁶ cm/s, the efflux ratio at 90 min ([2]; Caco-2, Pexact Efflux Ratio) was 5.54 and the Papp A→B at 90 min ([2]; Caco-2, Pexact) was 0.197 ×10⁻⁶ cm/s. The “Pexact, B > A” value [3] was 1.092 ×10⁻⁶ cm/s, the IC50 [4] was 0.16 to 29 µM and the recovery [5] was 82.8 ± 3%. The “stability in human plasma” value [5] was 91.4%, the t1/2 ([6]; 5 mg/kg IV, Sprague-Dawley rats, individual animals Rat 1-3) was 11.107 h and 14.022 h and the “t1/2 (terminal phase half-life)” value ([6]; 5 mg/kg IV, Sprague-Dawley rats, mean, n=3) was 12.25 ± 1.55 h. The Gamitrinib plasma concentration ([6]; 5 mg/kg IV, 5 min, animals 1-3) was 674.432 ng/mL and 622.199 ng/mL, the Gamitrinib plasma concentration ([6]; 5 mg/kg IV, 15 min, animals 1-3) was 128.663 ng/mL and 180.951 ng/mL and the Gamitrinib plasma concentration ([6]; 5 mg/kg IV, 30 min, animals 1-3) was 67.204 ng/mL and 106.381 ng/mL. For the same compound, the Gamitrinib plasma concentration ([6]; 5 mg/kg IV, 60 min, animals 1-3) was 65.903 ng/mL and 55.991 ng/mL, the Gamitrinib plasma concentration ([6]; 5 mg/kg IV, 120 min, animals 1-3) was 43.125 ng/mL and 29.914 ng/mL and the Gamitrinib plasma concentration ([6]; 5 mg/kg IV, 240 min, animals 1-3) was 34.776 ng/mL and 28.905 ng/mL. The Gamitrinib plasma concentration ([6]; 5 mg/kg IV, 1440 min, animals 1-3) was 10.511 ng/mL and 10.365 ng/mL, the AUCINF [6, 7] was 957.472 ng·h/mL and 918.784 ng·h/mL and the AUClast [6, 7] was 789.045 ng·h/mL and 709.112 ng·h/mL. For the same compound, the CL [6, 7] was 87.035 mL/min/kg and 90.700 mL/min/kg, the Cmax [6, 7] was 829.668 ng/mL and 1544.041 ng/mL and the MRT [6, 7] was 5.411 h and 5.524 h. For the same compound, the Vss [6, 7] was 60.052 L/kg and 78.131 L/kg, the Vz [6, 7] was 83.678 L/kg and 110.085 L/kg and the “AUClast (AUC0-t)” value ([6]; 5 mg/kg IV, mean, n=3) was 783.199 ng·h/mL. The “CL (clearance)” value ([6]; 5 mg/kg IV, mean, n=3) was 85.656 ± 5.856 mL/min/kg and 85.65 ± 5.85 mL/min/kg, the “17-AG plasma concentration after IV Gamitrinib” value (from here on “17-AG plasma concentration”) ([6]; 30 min, animals 1-3) was “BLOQ” and the “17-AG plasma concentration” value ([6]; 60 min, animals 1-3) was “BLOQ”. The “17-AG plasma concentration” value ([6]; 120 min, animals 1-3) was “BLOQ”, the “17-AG plasma concentration” value ([6]; 240 min, animals 1-3) was “BLOQ” and the “17-AG plasma concentration” value ([6]; 1440 min, animals 1-3) was “BLOQ”. It also gave a concentration at 5 min ([6]; Sprague-Dawley, rat, plasma, intravenous, 5 mg/kg, 5 mg/kg IV, 5 min, animals 1-3) of 526 ng/mL, a concentration at 15 min ([6]; Sprague-Dawley, rat, plasma, intravenous, 5 mg/kg, 5 mg/kg IV, 15 min, animals 1-3) of 212 ng/mL and a concentration at 30 min ([6]; Sprague-Dawley, rat, plasma, intravenous, 5 mg/kg, 5 mg/kg IV, 30 min, animals 1-3) of 114 ng/mL. It also gave a concentration at 60 min ([6]; Sprague-Dawley, rat, plasma, intravenous, 5 mg/kg, 5 mg/kg IV, 60 min, animals 1-3) of 71.4 ng/mL, a concentration at 120 min ([6]; Sprague-Dawley, rat, plasma, intravenous, 5 mg/kg, 5 mg/kg IV, 120 min, animals 1-3) of 46.7 ng/mL and a concentration at 240 min ([6]; Sprague-Dawley, rat, plasma, intravenous, 5 mg/kg, 5 mg/kg IV, 240 min, animals 1-3) of 36.8 ng/mL. It also gave a concentration at 1440 min ([6]; Sprague-Dawley, rat, plasma, intravenous, 5 mg/kg, 5 mg/kg IV, 1440 min, animals 1-3) of 11.9 ng/mL, a half-life ([6]; Sprague-Dawley, rat, plasma, iv, 5 mg/kg, 5 mg/kg IV, Sprague-Dawley rats, individual animals Rat 1-3, read-out: t1/2 (converted)) of 11.6 h and a half-life ([6]; Sprague-Dawley, rat, plasma, iv, 5 mg/kg, 5 mg/kg IV, Sprague-Dawley rats, mean, n=3, read-out: t1/2 (terminal phase half-life) (converted)) of 12.2 ± 1.55 h. It also gave an AUC(0-inf) ([6]; Sprague-Dawley, rat, plasma, iv, 5 mg/kg, 5 mg/kg IV, individual animals Rat 1-3) of 1050 ng·h/mL, an AUC(0-t) ([6]; Sprague-Dawley, rat, plasma, iv, 5 mg/kg, 5 mg/kg IV, individual animals Rat 1-3, read-out: AUClast) of 851 ng·h/mL and a clearance ([6]; Sprague-Dawley, rat, plasma, iv, 5 mg/kg, 5 mg/kg IV, individual animals Rat 1-3, read-out: CL) of 79.2 mL/min/kg. The Cmax ([6]; Sprague-Dawley, rat, plasma, iv, 5 mg/kg, 5 mg/kg IV, individual animals Rat 1-3, read-out: Cmax) was 1150 ng/mL, the MRT ([6]; Sprague-Dawley, rat, plasma, iv, 5 mg/kg, 5 mg/kg IV, individual animals Rat 1-3, read-out: MRT) was 5.54 h and the Vd ([6]; Sprague-Dawley, rat, plasma, iv, 5 mg/kg, 5 mg/kg IV, individual animals Rat 1-3, read-out: Vss) was 58.2 L/kg. For the same compound, the Vd ([6]; Sprague-Dawley, rat, plasma, iv, 5 mg/kg, 5 mg/kg IV, individual animals Rat 1-3, read-out: Vz) was 79.7 L/kg, the AUC(0-inf) ([6]; Sprague-Dawley, rat, plasma, iv, 5 mg/kg, 5 mg/kg IV, mean, n=3) was 976 ng·h/mL and the AUC(0-t) ([6]; Sprague-Dawley, rat, plasma, iv, 5 mg/kg, 5 mg/kg IV, mean, n=3, read-out: AUClast (AUC0-t)) was 783 ± 71.3 ng·h/mL. For the same compound, the clearance ([6]; Sprague-Dawley, rat, plasma, iv, 5 mg/kg, 5 mg/kg IV, mean, n=3, read-out: CL (clearance)) was 85.6 ± 5.8 mL/min/kg, the Cmax ([6]; Sprague-Dawley, rat, plasma, iv, 5 mg/kg, 5 mg/kg IV, mean, n=3, read-out: Cmax) was 1180 ng/mL and the MRT ([6]; Sprague-Dawley, rat, plasma, iv, 5 mg/kg, 5 mg/kg IV, mean, n=3, read-out: MRT) was 5.49 h. For the same compound, the Vd ([6]; Sprague-Dawley, rat, plasma, iv, 5 mg/kg, 5 mg/kg IV, mean, n=3, read-out: Vss) was 65.5 L/kg, the Vd ([6]; Sprague-Dawley, rat, plasma, iv, 5 mg/kg, 5 mg/kg IV, mean, n=3, read-out: Vz) was 91.2 L/kg and the “generation of 17-AG by Gamitrinib metabolism in rats” value ([6]; in words) was “did not generate detectable levels”.
